Measurements reported in patent US12077503B2, “Substituted cyclic amides and their use as herbicides” (FMC CORPORATION, priority 2015, dated 2024).

Columns and labels:
Assay type in all cases: in vivo
[1] = test system: ivy-leaved morning glory (Ipomoea hederacea); assay: Test G Pre-Emergence Protocol; conditions: Ipomoea, pre-emergence, 312 h, evaluated after 13 days; for pest or weed control at 15.625 g/ha: 15.625 g ai/ha; for pest or weed control at 15.625 g/ha / pest or weed control at 250 g/ha: read-out: Morningglory, Ivy-leaved damage rating (100=total damage to plant; 0=no damage to plant); for pest or weed control at 62.5 g/ha: 62.5 g ai/ha, 100=total damage to plant, 0=no damage to plant, read-out: Morningglory, Ivy-leaved damage rating; for pest or weed control at 250 g/ha: 250 g ai/ha
In short: (§1)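 Test compound in 0.5% Tween 20 acetone/water (50:50) was applied at three rates (15.625, 62.5, 250 g/ha) to soil sown one day earlier. After 13 days plants were scored for injury, where 0 means unaffected and 100 means completely damaged.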

[2] = test system: velvetleaf (Abutilon theophrasti); assay: Test G Pre-Emergence Protocol; conditions: Abutilon theophrasti, pre-emergence, 312 h, evaluated after 13 days; for pest or weed control at 15.625 g/ha: 15.625 g ai/ha; for pest or weed control at 15.625 g/ha / pest or weed control at 250 g/ha: read-out: Velvetleaf damage rating (100=total damage to plant; 0=no damage to plant); for pest or weed control at 62.5 g/ha: 62.5 g ai/ha, 100=total damage to plant, 0=no damage to plant, read-out: Velvetleaf damage rating; for pest or weed control at 250 g/ha: 250 g ai/ha
In short: as §1

corn (Zea mays) [3] = assay: Test G Pre-Emergence Protocol; conditions: Zea mays, pre-emergence, 312 h, evaluated after 13 days; for plant injury at 15.625 g/ha: 15.625 g ai/ha; for plant injury at 15.625 g/ha / plant injury at 250 g/ha: read-out: Corn damage rating (100=total damage to plant; 0=no damage to plant); for plant injury at 62.5 g/ha: 62.5 g ai/ha, 100=total damage to plant, 0=no damage to plant, read-out: Corn damage rating; for plant injury at 250 g/ha: 250 g ai/ha
In short: as §1

[4] = test system: giant foxtail (Setaria faberi); assay: Test G Pre-Emergence Protocol; conditions: Setaria faberi, pre-emergence, 312 h, evaluated after 13 days; for pest or weed control at 15.625 g/ha: 15.625 g ai/ha; for pest or weed control at 15.625 g/ha / pest or weed control at 250 g/ha: read-out: Foxtail, Giant damage rating (100=total damage to plant; 0=no damage to plant); for pest or weed control at 62.5 g/ha: 62.5 g ai/ha, 100=total damage to plant, 0=no damage to plant, read-out: Foxtail, Giant damage rating; for pest or weed control at 250 g/ha: 250 g ai/ha
In short: as §1

[5] = test system: barnyardgrass (Echinochloa crus-galli); assay: Test G Pre-Emergence Protocol; conditions: Echinochloa crus-galli, pre-emergence, 312 h, evaluated after 13 days; for pest or weed control at 15.625 g/ha: 15.625 g ai/ha; for pest or weed control at 15.625 g/ha / pest or weed control at 250 g/ha: read-out: Barnyardgrass damage rating (100=total damage to plant; 0=no damage to plant); for pest or weed control at 62.5 g/ha: 62.5 g ai/ha, 100=total damage to plant, 0=no damage to plant, read-out: Barnyardgrass damage rating; for pest or weed control at 250 g/ha: 250 g ai/ha
In short: as §1

[6] = test system: redroot pigweed (Amaranthus retroflexus); assay: Test G Pre-Emergence Protocol; conditions: Amaranthus retroflexus, pre-emergence, 312 h, evaluated after 13 days; for pest or weed control at 15.625 g/ha: 15.625 g ai/ha; for pest or weed control at 15.625 g/ha / pest or weed control at 250 g/ha: read-out: Pigweed, Redroot damage rating (100=total damage to plant; 0=no damage to plant); for pest or weed control at 62.5 g/ha: 62.5 g ai/ha, 100=total damage to plant, 0=no damage to plant, read-out: Pigweed, Redroot damage rating; for pest or weed control at 250 g/ha: 250 g ai/ha
In short: as §1

[7] = test system: ivy-leaved morning glory (Ipomoea hederacea); assay: Test G Post-Emergence Protocol; conditions: Ipomoea, post-emergence, 312 h, read-out: Morningglory, Ivy-leaved damage rating; for pest or weed control at 15.625 g/ha: 15.625 g ai/ha, evaluated after 13 days (100=total damage to plant; 0=no damage to plant); for pest or weed control at 62.5 g/ha: 62.5 g ai/ha; for pest or weed control at 62.5 g/ha / pest or weed control at 250 g/ha: evaluated after 13 days, 100=total damage to plant, 0=no damage to plant; for pest or weed control at 250 g/ha: 250 g ai/ha
In short: (§2)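 Seedlings grown 8 days in soil in a glasshouse (24/16 °C day/night, 14 h light, 65% humidity) were sprayed post-emergence with compound in acetone/water 50:50 plus 0.5% Tween 20 at 15.625, 62.5 or 250 g/ha. Damage was scored after 13 days on a 0–100 scale (100 = total damage).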

[8] = test system: velvetleaf (Abutilon theophrasti); assay: Test G Post-Emergence Protocol; conditions: Abutilon theophrasti, post-emergence, 312 h, read-out: Velvetleaf damage rating; for pest or weed control at 15.625 g/ha: 15.625 g ai/ha, evaluated after 13 days (100=total damage to plant; 0=no damage to plant); for pest or weed control at 62.5 g/ha: 62.5 g ai/ha; for pest or weed control at 62.5 g/ha / pest or weed control at 250 g/ha: evaluated after 13 days, 100=total damage to plant, 0=no damage to plant; for pest or weed control at 250 g/ha: 250 g ai/ha
In short: as §2

corn (Zea mays) [9] = assay: Test G Post-Emergence Protocol; conditions: Zea mays, post-emergence, 312 h, read-out: Corn damage rating; for plant injury at 15.625 g/ha: 15.625 g ai/ha, evaluated after 13 days (100=total damage to plant; 0=no damage to plant); for plant injury at 62.5 g/ha: 62.5 g ai/ha; for plant injury at 62.5 g/ha / plant injury at 250 g/ha: evaluated after 13 days, 100=total damage to plant, 0=no damage to plant; for plant injury at 250 g/ha: 250 g ai/ha
In short: as §2

[10] = test system: giant foxtail (Setaria faberi); assay: Test G Post-Emergence Protocol; conditions: Setaria faberi, post-emergence, 312 h, read-out: Foxtail, Giant damage rating; for pest or weed control at 15.625 g/ha: 15.625 g ai/ha, evaluated after 13 days (100=total damage to plant; 0=no damage to plant); for pest or weed control at 62.5 g/ha: 62.5 g ai/ha; for pest or weed control at 62.5 g/ha / pest or weed control at 250 g/ha: evaluated after 13 days, 100=total damage to plant, 0=no damage to plant; for pest or weed control at 250 g/ha: 250 g ai/ha
In short: as §2

[11] = test system: barnyardgrass (Echinochloa crus-galli); assay: Test G Post-Emergence Protocol; conditions: Echinochloa crus-galli, post-emergence, 312 h, read-out: Barnyardgrass damage rating; for pest or weed control at 15.625 g/ha: 15.625 g ai/ha, evaluated after 13 days (100=total damage to plant; 0=no damage to plant); for pest or weed control at 62.5 g/ha: 62.5 g ai/ha; for pest or weed control at 62.5 g/ha / pest or weed control at 250 g/ha: evaluated after 13 days, 100=total damage to plant, 0=no damage to plant; for pest or weed control at 250 g/ha: 250 g ai/ha
In short: as §2

[12] = test system: redroot pigweed (Amaranthus retroflexus); assay: Test G Post-Emergence Protocol; conditions: Amaranthus retroflexus, post-emergence, 312 h, read-out: Pigweed, Redroot damage rating; for pest or weed control at 15.625 g/ha: 15.625 g ai/ha, evaluated after 13 days (100=total damage to plant; 0=no damage to plant); for pest or weed control at 62.5 g/ha: 62.5 g ai/ha; for pest or weed control at 62.5 g/ha / pest or weed control at 250 g/ha: evaluated after 13 days, 100=total damage to plant, 0=no damage to plant; for pest or weed control at 250 g/ha: 250 g ai/ha
In short: as §2

Structure (SMILES)	pest or weed control at 15.625 g/ha [1]	pest or weed control at 62.5 g/ha [1]	pest or weed control at 250 g/ha [1]	pest or weed control at 15.625 g/ha [2]	pest or weed control at 62.5 g/ha [2]	pest or weed control at 250 g/ha [2]	plant injury at 15.625 g/ha (corn (Zea mays) [3])	plant injury at 62.5 g/ha (corn (Zea mays) [3])	plant injury at 250 g/ha (corn (Zea mays) [3])	pest or weed control at 15.625 g/ha [4]	pest or weed control at 62.5 g/ha [4]	pest or weed control at 250 g/ha [4]	pest or weed control at 15.625 g/ha [5]	pest or weed control at 62.5 g/ha [5]	pest or weed control at 250 g/ha [5]	pest or weed control at 15.625 g/ha [6]	pest or weed control at 62.5 g/ha [6]	pest or weed control at 250 g/ha [6]	pest or weed control at 15.625 g/ha [7]	pest or weed control at 62.5 g/ha [7]	also measured
CN1C[C@H](c2cccc(C(C)(C)C#N)c2)[C@@H](C(=O)Nc2ccccc2S(C)(=O)=O)C1=O (racemic) [Compound 1784]	0%	0%	10%	0%	0%	0%	0%	0%	0%	10%	0%	40%	0%	10%	10%	0%	0%	0%	0%	0%	pest or weed control at 250 g/ha [7]: 0%; pest or weed control at 15.625 g/ha [8]: 0%; pest or weed control at 62.5 g/ha [8]: 0%; pest or weed control at 250 g/ha [8]: 0%; plant injury at 15.625 g/ha (corn (Zea mays) [9]): 0%; plant injury at 62.5 g/ha (corn (Zea mays) [9]): 0%; plant injury at 250 g/ha (corn (Zea mays) [9]): 0%; pest or weed control at 15.625 g/ha [10]: 0%; pest or weed control at 62.5 g/ha [10]: 0%; pest or weed control at 250 g/ha [10]: 0%; pest or weed control at 15.625 g/ha [11]: 0%; pest or weed control at 62.5 g/ha [11]: 0%; pest or weed control at 250 g/ha [11]: 0%; pest or weed control at 15.625 g/ha [12]: 0%; pest or weed control at 62.5 g/ha [12]: 0%; pest or weed control at 250 g/ha [12]: 0%
CN1C[C@H](c2ccc(Cl)cc2)[C@@H](C(=O)Nc2ccc(F)nc2F)C1=O [Compound 1811]	0%	20%	80%	10%	50%	70%	0%	70%	80%	90%	90%	90%	80%	90%	90%	30%	70%	80%	40%	20%	pest or weed control at 250 g/ha [7]: 70%; pest or weed control at 15.625 g/ha [8]: 10%; pest or weed control at 62.5 g/ha [8]: 30%; pest or weed control at 250 g/ha [8]: 50%; plant injury at 15.625 g/ha (corn (Zea mays) [9]): 40%; plant injury at 62.5 g/ha (corn (Zea mays) [9]): 60%; plant injury at 250 g/ha (corn (Zea mays) [9]): 80%; pest or weed control at 15.625 g/ha [10]: 80%; pest or weed control at 62.5 g/ha [10]: 80%; pest or weed control at 250 g/ha [10]: 80%; pest or weed control at 15.625 g/ha [11]: 80%; pest or weed control at 62.5 g/ha [11]: 80%; pest or weed control at 250 g/ha [11]: 80%; pest or weed control at 15.625 g/ha [12]: 20%; pest or weed control at 62.5 g/ha [12]: 60%; pest or weed control at 250 g/ha [12]: 80%
